Reference: the supplement of paper PMC10307832

Key:
Experiment in all cases: relative viability (nuclei count vs DMSO), 5 days (fraction); higher = more cells survive
[1] = compound: C1=CC2=NC=CN=C2C=C1/C=C/3\C(=O)NC(=O)S3
Outline: (§1)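 Viability here means nuclei in treated wells divided by nuclei in vehicle wells, reported as the median across plates. Only plates with control CV below 25% and at least one doubling passed. Lung cancer cell lines in 1536-well plates were exposed to five √10-spaced library-drug doses for 5 days and counted from 4× Hoechst images in MetaXpress.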

BGJ398 = compound: CCN1CCN(c2ccc(Nc3cc(N(C)C(=O)Nc4c(Cl)c(OC)cc(OC)c4Cl)ncn3)cc2)CC1 [BGJ398]
Outline: as §1

[2] = compound: C1=CC2=NC=CN=C2C=C1/C=C/3\C(=O)NC(=O)S3 + Cc1nc(NC(=O)N2CCC[C@H]2C(N)=O)sc1-c1ccnc(C(C)(C)C(F)(F)F)c1 [Alpelisib] (partner 2 µM)
Outline: (§2)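 Lung cancer cell lines, seeded in 1536-well plates, were treated the following day by pin tool with a single drug or with five library-drug doses (not always all listed) in √10 steps on top of a fixed anchor-drug dose. Cells were fixed and nuclei stained in one step after 5 days, and nuclei were counted. Relative viability is the nuclei count for treated wells divided by that for vehicle wells, reported as medians of duplicate plates.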

BGJ398 + Bortezomib = compound: CCN1CCN(c2ccc(Nc3cc(N(C)C(=O)Nc4c(Cl)c(OC)cc(OC)c4Cl)ncn3)cc2)CC1 [BGJ398] + CC(C)C[C@H](NC(=O)[C@H](Cc1ccccc1)NC(=O)c1cnccn1)B(O)O [Bortezomib] (partner 0.002 µM)
Outline: as §2

Cell Line | relative viability ([1]; 0.02 µM) | relative viability ([1]; 0.06325 µM) | relative viability ([1]; 0.2 µM) | relative viability ([1]; 0.6325 µM) | relative viability ([1]; 2 µM) | relative viability (BGJ398; 0.01 µM) | relative viability (BGJ398; 0.03162 µM) | relative viability (BGJ398; 0.1 µM) | relative viability (BGJ398; 0.3162 µM) | relative viability (BGJ398; 1 µM) | relative viability ([2]; first compound 0.02 µM) | relative viability ([2]; first compound 0.06325 µM) | relative viability ([2]; first compound 0.2 µM) | relative viability ([2]; first compound 0.6325 µM) | relative viability ([2]; first compound 2 µM) | relative viability (BGJ398 + Bortezomib; first compound 0.01 µM) | relative viability (BGJ398 + Bortezomib; first compound 0.03162 µM) | relative viability (BGJ398 + Bortezomib; first compound 0.1 µM) | relative viability (BGJ398 + Bortezomib; first compound 0.3162 µM) | relative viability (BGJ398 + Bortezomib; first compound 1 µM)
NCI-H2126 | 0.885 | 1.07 | 0.956 | 0.979 | 0.621 | 1.02 | 0.999 | 1.04 | 0.989 | 0.948 | 0.662 | 0.786 | 0.752 | 0.757 | 0.639 | 1.14 | 1.1 | 1.11 | 1.11 | 1.12
EMC-BAC-2 | 0.951 | 1.1 | 1.1 | 0.944 | 0.554 | 1.17 | 1.15 | 0.964 | 0.945 | 0.942 | 0.707 | 0.784 | 0.756 | 0.709 | 0.75 | 1.05 | 1 | 1.14 | 1.08 | 1.01
NCI-H1993 | 0.815 | 0.956 | 1.02 | 0.923 | 0.622 | 1.24 | 0.893 | 0.957 | 0.972 | 0.886 | 0.661 | 0.743 | 0.634 | 0.553 | 0.602 | 1.17 | 0.753 | 1.2 | 1.23 | 1.19
NCI-H520 | 1.03 | 1.14 | 1.06 | 0.855 | 0.927 | 0.954 | 0.954 | 0.758 | 0.312 | 0.4 | 0.866 | 0.948 | 0.822 | 0.877 | 1.01 | 0.538 | 0.54 | 0.259 | 0.201 | 0.162
NCI-H647 | 0.959 | 1.13 | 1.08 | 0.84 | 0.938 | 0.869 | 1.07 | 1.03 | 0.867 | 0.799 | 0.865 | 1.89 | 1.28 | 1.06 | 1.14 | 0.986 | 1.12 | 1.24 | 0.864 | 0.793
NCI-H1792 | 0.956 | 0.783 | 0.927 | 0.857 | 0.411 | 0.903 | 0.851 | 0.704 | 0.811 | 0.652 | 0.62 | 0.501 | 0.644 | 0.658 | 0.657 | 0.936 | 0.963 | 1.11 | 0.926 | 0.942
SK-LU-1 | 1.06 | 1.21 | 1.09 | 1.02 | 0.969 | 0.983 | 1.07 | 1.22 | 0.978 | 1.03 | 1.01 | 1.5 | 1.21 | 1.05 | 0.968 | 1.11 | 1.27 | 1.51 | 1.14 | 1.14
NCI-H1299 | 0.996 | 1.04 | 1.02 | 1 | 1.01 | 0.99 | 1.05 | 1 | 0.993 | 1.02 | 1.07 | 1.1 | 1.05 | 1.02 | 0.993 | 0.982 | 1.06 | 1.02 | 1.01 | 1.01
NCI-H2009 | 0.996 | 1.03 | 1.04 | 1.02 | 0.923 | 0.924 | 1.07 | 0.994 | 0.974 | 1.06 | 1.24 | 1.21 | 1.17 | 1.18 | 1.21 | 0.918 | 1.09 | 0.955 | 0.978 | 1.14
LOU-NH91 | 0.997 | 0.988 | 1.01 | 0.978 | 0.805 | 0.935 | 0.883 | 0.971 | 0.771 | 0.931 | 0.721 | 0.762 | 0.676 | 0.738 | 0.728 | 0.483 | 0.498 | 0.547 | 0.54 | 0.472
NCI-H2405 | 1.08 | 1.02 | 1.02 | 1.01 | 0.394 | 1.04 | 1.11 | 0.99 | 1.01 | 0.958 | 0.692 | 0.92 | 0.872 | 0.804 | 0.703 | 0.976 | 0.99 | 1 | 0.98 | 0.785
LCLC-97TM1 | 0.822 | 1.02 | 1.03 | 0.906 | 0.214 | 0.778 | 1.09 | 1.02 | 0.962 | 0.97 | 0.234 | 0.267 | 0.294 | 0.268 | 0.178 | 0.685 | 0.492 | 0.789 | 0.529 | 0.329
NCI-H596 | 1.06 | 0.938 | 1.1 | 0.834 | 0.867 | 1.13 | 0.931 | 0.978 | 0.92 | 0.8 | 0.486 | 0.451 | 0.469 | 0.537 | 0.502 | 0.988 | 0.72 | 0.96 | 1.04 | 0.769
NCI-H727 | 0.931 | 0.856 | 1.13 | 0.888 | 0.558 | 0.868 | 0.879 | 0.917 | 0.957 | 0.917 | 0.647 | 0.571 | 0.556 | 0.653 | 0.346 | 0.899 | 0.822 | 0.796 | 0.882 | 0.774
H3255 | 0.984 | 1.02 | 1.01 | 0.934 | 0.946 | 0.945 |  | 1 | 0.843 | 0.999 | 0.734 | 0.903 | 0.661 | 0.907 | 0.717 | 0.712 |  | 0.712 | 0.439 | 0.69
NCI-H1437 | 1.01 | 0.983 | 1.04 | 0.964 | 0.703 | 0.978 | 1.01 | 1 | 1 | 0.832 | 0.964 | 1.04 | 1.03 | 0.936 | 0.844 | 0.521 | 0.56 | 0.412 | 0.536 | 0.462
LU99A | 1.07 | 1.11 | 0.979 | 0.871 | 0.518 | 0.884 | 0.95 | 0.89 | 0.908 | 0.792 | 0.575 | 0.562 | 0.607 | 0.501 | 0.393 | 1.08 | 1.23 | 1.23 | 1.13 | 1.09
HCC-827 | 0.989 | 0.984 | 1.02 | 1.04 | 1.05 | 0.932 |  | 1.01 | 0.962 | 1.04 | 1.05 | 0.947 | 1.04 | 0.925 | 0.911 | 0.942 | 0.945 | 1.08 | 0.972 | 0.973
HCC-366 | 0.979 | 0.787 | 1.01 | 0.942 | 0.985 | 1.01 | 1.01 | 1.07 | 1.08 | 0.974 | 0.391 | 0.488 | 0.432 | 0.361 | 0.259 | 1.07 | 1.1 | 1.15 | 1.09 | 0.991
BEN | 0.922 | 0.922 | 1.03 | 0.961 | 0.839 | 0.891 | 0.964 | 0.947 | 0.845 | 0.809 | 1.07 | 0.877 | 1.22 | 0.911 | 1.09 | 0.719 | 0.976 | 0.715 | 0.656 | 0.619
NCI-H23 | 1.01 | 1.21 | 1.1 | 0.876 | 0.753 | 0.994 | 0.974 | 0.966 | 0.937 | 0.979 | 0.67 | 0.803 | 0.589 | 0.692 | 0.567 | 0.946 | 1.05 | 1.19 | 1.2 | 1
201T | 0.823 | 1.05 | 1.03 | 0.954 | 0.818 | 1.18 | 0.93 | 0.96 | 0.95 | 0.845 | 0.955 | 1.05 | 1.01 | 0.978 | 0.877 | 1.24 | 1.08 | 1.11 | 1.07 | 1.04
NCI-H460 | 0.933 | 0.964 | 0.999 | 0.939 | 0.942 | 1.02 | 1.04 | 1.11 | 0.984 | 0.988 | 0.508 | 0.514 | 0.464 | 0.429 | 0.379 | 1.17 | 1.23 | 1.45 | 1.04 | 1.06
NCI-H661 | 1.01 | 1.04 | 1.02 | 0.972 | 1.07 | 0.977 | 0.997 | 0.983 | 0.987 | 0.914 | 0.651 | 0.614 | 0.952 | 0.732 | 0.469 | 0.7 | 0.905 | 0.799 | 0.767 | 1
HCC-15 | 1 | 0.921 | 0.972 | 0.921 | 0.818 | 1.01 | 1.01 | 1.07 | 1.13 | 0.887 | 0.813 | 0.923 | 0.884 | 0.849 | 0.839 | 1.01 | 0.997 | 1.04 | 1.08 | 1.06
NCI-H1563 | 1.06 | 0.93 | 1.11 | 0.822 | 1.12 | 0.992 | 0.993 | 0.936 | 0.831 | 0.701 | 0.962 | 0.941 | 0.964 | 0.941 | 1.01 | 0.931 | 0.802 | 0.778 | 0.674 | 0.71
ABC-1 | 0.977 | 0.987 | 0.893 | 0.931 | 0.526 | 0.891 | 0.988 | 0.902 | 0.816 | 0.927 | 1 | 1.14 | 0.933 | 1.01 | 1.02 | 0.306 | 0.34 | 0.287 | 0.321 | 0.299
LCLC-103H | 0.957 | 1.05 | 0.969 | 0.918 | 0.852 | 0.984 | 0.903 | 1.06 | 0.792 | 0.79 | 0.876 | 0.906 | 1.01 | 1.03 | 0.925 | 1.15 | 1.02 | 1.07 | 0.963 | 0.875
NCI-H441 | 0.863 | 0.875 | 0.885 | 1.2 | 0.736 | 0.807 | 0.977 | 1.16 | 1.05 | 1.01 | 0.714 | 0.844 |  | 0.876 | 0.636 | 0.398 | 0.991 | 0.861 | 0.4 | 0.472
EPLC-272H | 0.939 | 0.902 | 0.98 | 0.799 | 0.733 | 0.898 | 0.899 | 0.911 | 0.785 | 0.778 | 1.05 | 1.05 | 1.01 | 0.833 | 0.939 | 0.96 | 0.816 | 0.957 | 0.841 | 0.861
